Data published in PubChem BioAssay AID743370.
Active and inactive are the calls of the source. The rule behind the calls is not given here.

What follows are molecules tested against Acetylcholine receptor subunit alpha (Tetronarce californica) + Acetylcholine receptor subunit beta (Tetronarce californica) + Acetylcholine receptor subunit gamma (Tetronarce californica) + Acetylcholine receptor subunit delta (Tetronarce californica) (UniProt P02710+P02712+P02714+P02718) (assay: muscle-type nicotinic receptor radioligand displacement – biochemical, Torpedo californica electric organ membranes, [125I]alpha-bungarotoxin (AID 743370)). Settings: [125I]alpha-bungarotoxin displacement.
Acetylcholine receptor subunit alpha (Tetronarce californica) + Acetylcholine receptor subunit beta (Tetronarce californica) + Acetylcholine receptor subunit gamma (Tetronarce californica) + Acetylcholine receptor subunit delta (Tetronarce californica), sequence (P02710 whole entry, looked up): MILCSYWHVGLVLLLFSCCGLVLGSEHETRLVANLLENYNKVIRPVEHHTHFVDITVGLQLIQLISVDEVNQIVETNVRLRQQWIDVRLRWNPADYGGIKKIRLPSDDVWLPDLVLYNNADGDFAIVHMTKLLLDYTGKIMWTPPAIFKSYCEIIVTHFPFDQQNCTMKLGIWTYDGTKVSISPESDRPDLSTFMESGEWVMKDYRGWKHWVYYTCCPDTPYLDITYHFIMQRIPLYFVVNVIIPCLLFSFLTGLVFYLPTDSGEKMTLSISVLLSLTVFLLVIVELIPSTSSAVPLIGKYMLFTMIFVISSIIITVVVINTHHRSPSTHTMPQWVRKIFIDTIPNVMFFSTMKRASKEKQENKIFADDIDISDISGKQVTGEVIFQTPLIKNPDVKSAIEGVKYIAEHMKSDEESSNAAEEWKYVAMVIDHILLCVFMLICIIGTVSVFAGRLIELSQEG
Acetylcholine receptor subunit alpha (Tetronarce californica) + Acetylcholine receptor subunit beta (Tetronarce californica) + Acetylcholine receptor subunit gamma (Tetronarce californica) + Acetylcholine receptor subunit delta (Tetronarce californica), sequence (P02712 whole entry, looked up): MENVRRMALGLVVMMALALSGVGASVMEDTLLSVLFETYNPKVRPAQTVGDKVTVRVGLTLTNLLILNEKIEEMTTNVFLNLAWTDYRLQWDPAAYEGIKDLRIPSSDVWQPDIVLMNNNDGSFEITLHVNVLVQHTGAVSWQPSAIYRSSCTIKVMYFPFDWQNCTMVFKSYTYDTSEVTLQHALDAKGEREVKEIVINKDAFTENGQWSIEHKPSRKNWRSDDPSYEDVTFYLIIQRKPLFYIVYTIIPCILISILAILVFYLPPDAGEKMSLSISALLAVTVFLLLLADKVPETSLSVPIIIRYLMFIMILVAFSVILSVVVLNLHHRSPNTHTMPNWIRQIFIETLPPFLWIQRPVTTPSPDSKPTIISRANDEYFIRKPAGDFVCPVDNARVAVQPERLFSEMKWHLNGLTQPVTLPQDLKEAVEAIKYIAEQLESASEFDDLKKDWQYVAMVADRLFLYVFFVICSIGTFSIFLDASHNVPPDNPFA
Acetylcholine receptor subunit alpha (Tetronarce californica) + Acetylcholine receptor subunit beta (Tetronarce californica) + Acetylcholine receptor subunit gamma (Tetronarce californica) + Acetylcholine receptor subunit delta (Tetronarce californica), sequence (P02714 whole entry, looked up): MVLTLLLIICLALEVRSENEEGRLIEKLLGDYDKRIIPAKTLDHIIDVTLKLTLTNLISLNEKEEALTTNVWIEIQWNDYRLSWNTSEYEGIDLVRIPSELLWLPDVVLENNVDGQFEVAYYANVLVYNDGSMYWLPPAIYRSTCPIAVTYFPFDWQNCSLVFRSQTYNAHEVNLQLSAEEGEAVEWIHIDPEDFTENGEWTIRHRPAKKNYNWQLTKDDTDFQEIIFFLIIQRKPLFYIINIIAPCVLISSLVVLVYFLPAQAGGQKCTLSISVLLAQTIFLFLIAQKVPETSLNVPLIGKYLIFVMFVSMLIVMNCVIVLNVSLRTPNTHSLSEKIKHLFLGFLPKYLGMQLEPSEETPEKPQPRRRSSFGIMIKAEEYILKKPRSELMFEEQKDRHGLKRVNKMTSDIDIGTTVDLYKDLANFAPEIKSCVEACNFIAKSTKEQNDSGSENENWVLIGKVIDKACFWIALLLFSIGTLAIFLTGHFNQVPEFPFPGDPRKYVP
Acetylcholine receptor subunit alpha (Tetronarce californica) + Acetylcholine receptor subunit beta (Tetronarce californica) + Acetylcholine receptor subunit gamma (Tetronarce californica) + Acetylcholine receptor subunit delta (Tetronarce californica), sequence (P02718 whole entry, looked up): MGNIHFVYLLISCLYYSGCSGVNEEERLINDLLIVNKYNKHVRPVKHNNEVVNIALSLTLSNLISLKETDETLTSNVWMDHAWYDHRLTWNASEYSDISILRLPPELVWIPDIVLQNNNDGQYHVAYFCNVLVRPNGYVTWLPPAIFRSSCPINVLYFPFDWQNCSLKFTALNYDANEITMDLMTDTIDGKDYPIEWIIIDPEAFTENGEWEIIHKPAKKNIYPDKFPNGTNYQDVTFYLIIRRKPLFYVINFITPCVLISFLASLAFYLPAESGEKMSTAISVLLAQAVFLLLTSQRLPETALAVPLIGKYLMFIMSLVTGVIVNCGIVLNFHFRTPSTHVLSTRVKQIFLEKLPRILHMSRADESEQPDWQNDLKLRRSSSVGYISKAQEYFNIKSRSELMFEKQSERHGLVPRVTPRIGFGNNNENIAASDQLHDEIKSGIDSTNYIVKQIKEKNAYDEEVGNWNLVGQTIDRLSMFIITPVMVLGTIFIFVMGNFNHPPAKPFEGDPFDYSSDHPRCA

Row | Structure (SMILES) | Ki
1 | C[C@@H](N)[C@H](O)CCCCCCCC(=O)CCCCCCCCCCCCCC[C@@H](O[C@@H]1O[C@H](CO)[C@H](O)[C@H](O)[C@H]1O)[C@@H](C)N | 22 µM
2 | COn1c(Br)c2c3c(cccc31)[C@H]1C[C@@H](C)CN(C)[C@@H]1C2 | 44 µM
3 | CC/C=C/[C@@H]1CC[C@]2(C[C@H]3CC[C@H]4[C@@H](C(=O)OC(CC)CCCCCCCCCCCCC[C@@H]5O[C@](O)(CCN)[C@H](O)N(CCCN)C5=O)[C@@]5(CCC[C@H](C)O5)NC(=[N+]34)N2)O1 (stereo partly specified) | 8 µM
4 | COc1cc(CCN)c2c(c1OC)SSSSS2 | 10 µM
5 | COc1cc2c3c(ccnc3c1OC)NC=C2 | 34 µM
6 | NC1=N/C(=C2/CCNC(=O)c3[nH]ccc32)C(=O)N1 | inactive
